Measured values as given in patent publication US11260072B2, “MicroRNA-based methods and assays for osteocarcinoma” (3-D Matrix, Ltd., priority 2011, dated 2022).
d = 2'-deoxy (DNA); r = 2'-OH (RNA)

Assays:
Type in all cases: cell-based, human
143B cells = experiment: qRT-PCR of miRNAs and CD133 mRNA in drug-treated 143B cells
Source text: RNA isolation and quantitative real-time RT-PCR of mRNAs and miRNAs. Total RNA was purified from cells and tumor tissues with an RNeasy Mini Kit and RNase-Free DNase Set (QIAGEN). For quantitative polymerase chain reaction (qPCR) of mRNAs, cDNA was synthesized using High-Capacity cDNA Reverse Transcription Kit (Applied Biosystems). For each qPCR reaction, equal amounts of cDNA were mixed with Platinum SYBER Green qPCR SuperMix (Invitrogen) and specific primers (Table 1). Gene expression levels were normalized by beta actin (ACTB) or glyceraldehyde 3-phosphate dehydrogenase (GAPDH). For qPCR of miRNAs, miRNA was converted to cDNA using the TaqMan MicroRNA Reverse Transcription Kit (Applied Biosystems). RNU6B small nuclear RNA was amplified as an internal control. qPCR was performed using each miRNA-specific probe included with the TaqMan MicroRNA Assay on a Real-Time PCR System 7300 and SDS software (Applied Biosystems).
In addition, the expression of miR-133a was enhanced by cisplatin in CD133^low HOS cells. […] CDDP-treated CD133^low HOS cells could form tumors with as few as 100 cells per injection, whereas the untreated CD133^low HOS cells could not (FIG. 23 and Table 9). […] Therefore, we reasoned that silencing of miR-133a before or during chemotherapy would prevent the increase of the expression of miR-133a, which enhanced TIC phenotypes and was induced by chemotherapeutics.

CD133^low SaOS2 cells [1] = experiment: siRNA knockdown, invasion assay; conditions: siRNA 100 nM, 72 h after transfection
Protocol: Invasion assay. Invasion assays were performed by using 24-well BD BioCoat Invasion Chambers with Matrigel (Becton-Dickinson). 1×10^5 cells, suspended in 500 μL DMEM or RPMI 1640 medium without FBS, were added to the upper chamber, and DMEM or RPMI 1640 medium with 10% FBS was added to the lower chamber. After incubation for 24 h or 36 h, the cells on the upper surface of the filter were completely removed by wiping them with cotton swabs. The filters were fixed in methanol and stained with 1% toluidine blue in 1% sodium tetraborate (Sysmex). Filters were then mounted onto slides, and cells on lower surfaces were counted. Each assay was performed in triplicate.
(§1) Transfection with synthetic miRNAs, LNAs, and siRNAs. Synthetic hsa-miRs (Pre-miR-hsa-miR-1, -10b, -133a, and negative control (NC; Applied Biosystems, Table 2) and locked nucleic acids (LNAs) (LNA-1, -10b, -133a, and negative control, Exiqon, Table 3) were transfected into each type of cells at 30 nM each (final concentration) using DharmaFECT 1(GE Healthcare). Synthetic siRNAs (Bonac corporation, Table 4) were transfected into each type of cells at 100 nM each (final concentration) using DharmaFECT 1 (GE Healthcare). After 24 hours of incubation, cells were treated with chemotherapeutic agents for cytotoxicity assay or reseeded into invasion chambers for invasion assay.
(§2) Next, the expression of these molecules was reduced using siRNA-induced gene knockdown system to investigate whether these candidates are functionally important targets of miR-133a in osteosarcoma cells.

CD133^low SaOS2 cells [2] = experiment: siRNA knockdown, cell growth in the presence of cisplatin; conditions: siRNA 100 nM, 72 h after transfection
Protocol: as §1, §2

| Compound | invasiveness after knockdown (CD133^low SaOS2 cells [1]) | drug resistance after knockdown (CD133^low SaOS2 cells [2]) | also measured |
| --- | --- | --- | --- |
| COc1cccc2c1C(=O)c1c(O)c3c(c(O)c1C2=O)C[C@@](O)(C(=O)CO)C[C@@H]3O[C@H]1C[C@H](N)[C@H](O)[C@H](C)O1 [DOX, doxorubicin] | – | – | CD133 mRNA expression (143B cells; 143B cells): induction; expression of miR-1, miR-10b, and miR-133a (143B cells; 3 days treatment, relative to untreated 143B cells): increased level |
| ANXA2: synthetic siRNA against ANXA2 (Bonac corporation), Table 4 (sense UGACCAAGAUGCUCGGGAUTT; antisense AUCCCGAGCAUCUUGGUCATT; sugars from the 5' end r19 d2, backbone not given here) | enhanced invasiveness | enhanced drug resistance | – |
| DUSP11: synthetic siRNA against DUSP11 (Bonac corporation), Table 4 (sense CCAGAGGAUUUGCCAGAAATT; antisense UGUGUCUCGGAUUAGGAAGTT; sugars from the 5' end r19 d2, backbone not given here) | enhanced invasiveness | enhanced drug resistance | – |
| MAST4: synthetic siRNA against MAST4 (Bonac corporation), Table 4 (sense GGAGGUACCUUCUUCCAAATT; antisense UAUCAAACUUCCUCUUCUGTT; sugars from the 5' end r19 d2, backbone not given here) | – | enhanced drug resistance | – |
| ROD1: synthetic siRNA against ROD1 (Bonac corporation), Table 4 (sense GGGAAUGACAGCAAGAAAUTT; antisense AUUUCUUGCUGUCAUUCCCTT; sugars from the 5' end r19 d2, backbone not given here) | – | enhanced drug resistance | – |
| SGMS2: synthetic siRNA against SGMS2 (Bonac corporation), Table 4 (sense CCACUAGAGUGGUGGAAAATT; antisense UUUUCCACCACUCUAGUGGTT; sugars from the 5' end r19 d2, backbone not given here) | enhanced invasiveness | – | – |
| SNX30: synthetic siRNA against SNX30 (Bonac corporation), Table 4 (sense CCGAGAAGUUUGUGGUAAATT; antisense UUUACCACAAACUUCUCGGTT; sugars from the 5' end r19 d2, backbone not given here) | enhanced invasiveness | – | – |
| UBA2: synthetic siRNA against UBA2 (Bonac corporation), Table 4 (sense GGACUGGGCUGAAGUACAATT; antisense UUGUACUUCAGCCCAGUCCTT; sugars from the 5' end r19 d2, backbone not given here) | enhanced invasiveness | – | – |
